One may read the Ki as the dissociation constant of the complex between target and ligand, obtained from inhibition or displacement.

The values below come from BindingDB's records for doi:10.1016/j.bmcl.2011.10.116 (The University of Queensland, 2012).

The structures appear in SMILES notation.

The target of the experiment is Beta-lactamase (Pseudomonas aeruginosa, UniProt Q79MP6). Nature of the experiment: Competitive inhibition of Pseudomonas aeruginosa beta-lactamase IMP-1 assessed as formation of 4-nitrothiophenolate at pH 7 using CENTA as chromogenic substrate.
Sequence of Beta-lactamase (Q79MP6 whole entry): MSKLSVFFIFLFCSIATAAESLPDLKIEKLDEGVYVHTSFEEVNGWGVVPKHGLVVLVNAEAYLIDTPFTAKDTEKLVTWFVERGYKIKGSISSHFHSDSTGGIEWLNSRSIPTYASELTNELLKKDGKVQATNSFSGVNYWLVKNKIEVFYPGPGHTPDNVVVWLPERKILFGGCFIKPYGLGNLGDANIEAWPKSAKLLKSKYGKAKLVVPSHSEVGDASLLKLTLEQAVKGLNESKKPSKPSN
As for `NC(=S)NNC(=O)c1ccc(Cc2ccccc2)cc1`, the Ki amounted to 18 µM.
For `NC(=S)NNC(=O)c1ccc(C(=O)c2ccc([N+](=O)[O-])cc2)cc1`, the Ki was determined as 11 µM.
On to `NC(=S)NNC(=O)c1ccc(C(=O)c2ccccc2Cl)cc1`, for which the Ki turned out to be 14 µM.
As for `NC(=S)NNC(=O)c1ccc(C(=O)c2cccc([N+](=O)[O-])c2)cc1`, the Ki turned out to be 16 µM.
For the compound `NC(S)=NNC(=O)c1ccccc1`, the Ki came out at 19 µM.
For `Cc1ccc(C(=O)c2ccc(C(=O)NNC(N)=S)cc2)cc1` the value was 41 µM.
`NC(=S)NNC(=O)c1ccc(C(=O)c2ccccc2)cc1`: the inhibition constant (Ki) was determined as 13 µM.
`O=C(c1ccccc1)c1ccc(-c2nnc(S)[nH]2)cc1`: the Ki was determined as 75 µM.
